Experimental data from patent US10647690B2, “2,3-epoxy succinyl derivative, preparation method and use thereof” (Institute of Pharmacology and Toxicology Academy of …, priority 2016, dated 2020).
Where two headings read alike, the source gives them in different places.

What was measured:
Cathepsin K = target: T1, Cathepsin K (Homo sapiens, UniProt P43235); test: Preliminary screening of Cathepsin K (Cathepsin K Inhibitor Screening Kit K150-100, Biovision); format: biochemical; settings: relative inhibition rate vs 10 μM FF-FMK control
T1 construct: purchased Biovision K150-100
T1 sequence (P43235 115-329): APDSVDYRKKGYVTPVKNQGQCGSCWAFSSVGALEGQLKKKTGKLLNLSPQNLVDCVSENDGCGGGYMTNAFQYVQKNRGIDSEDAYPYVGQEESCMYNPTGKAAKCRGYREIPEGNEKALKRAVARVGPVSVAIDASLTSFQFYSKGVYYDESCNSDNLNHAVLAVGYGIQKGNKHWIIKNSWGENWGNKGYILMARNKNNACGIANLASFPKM
In short: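 Percent inhibition was derived from kinetic slopes (ΔRFU/Δt, ex 400/em 505 nm, 120 min at 37 °C), normalized between an uninhibited enzyme control and 10 μM FF-FMK. Compounds were added from 100 μM or 10 μM working solutions (10% DMSO) to Cathepsin K and preincubated 15 min at 25 °C before substrate.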

Cathepsin L = target: T2, Cathepsin L (Homo sapiens, UniProt P07711); test: IC50 determination against Cathepsin L (Biovision kit K161-100); format: biochemical; settings: CTSL
T2 construct: purchased Biovision K161-100
Description: 2. Method for determining IC50 of compounds against cathepsin:
IC50 of compounds against Cathepsin L was determined by using Cathepsin L Inhibitor Screening Kit (Product No. K161-100) from Biovision Company;
2.1.1.3 Preparation of Cathepsin L solution: Cathepsin L reagent (3 μl) was added to Cathepsin L enzyme (3 μl), mixed well, and on standing for 1 h, to get 1 mU/μl Cathepsin L enzyme solution. Cathepsin L buffer (24 μl) was added to 1 mU/μl cathepsin L enzyme solution (6 μl), to get 0.2 mU/μl Cathepsin L enzyme solution. 0.2 mU/μl cathepsin L enzyme (23 μl), and DTT (46 μl) were added to Cathepsin L buffer (2231 μl), and mixed well, to prepare Cathepsin L enzyme solution with a volume of 2.3 ml, which was placed on ice for further use.
2.1.2 Preparation of compound solutions: 30 mM and 10 mM compound stock solutions, and control compounds were gradiently diluted in DMSO at a ratio of 1:3, wherein the maximum dilution fold was 19683; the gradiently diluted compound solution (3 μl) was added to Cathepsin K, B, L, and S buffer (27 μl), respectively, and mixed well, wherein the control compounds (FF-FMK, F-F-FMK, FF-FMK and Z-FF-FMK) were at the concentrations of 66.67, 22.22, 7.41, 2.47, 0.82, 0.27, 0.091, 0.03, 0.01, 0.0034 and 0 μM, respectively, the test compounds were at the concentrations of 1000, 333.3, 111.1, 37, 12.3, 4.1, 1.4, 0.46, 0.15, 0.05 and 0 μM, respectively, and the final concentration of DMSO was 10%.
2.1.3.3 Cathepsin L: Cathepsin L substrate (45 μl) was added to Cathepsin L buffer (1755 μl), and mixed well, to prepare Cathepsin L substrate solution with a volume of 1.8 ml, which was placed on ice for further use.
Method for screening cathepsin inhibitors: the cathepsin solution (prepared in Item 2.1.1) was added to a 384-well plate (ProxiPlate-384 Plus, Perkinelmer) at 10 μl/well, and centrifuged at 1000 rpm for Imin; the compound solution (prepared in Item 2.1.2) was then added at 2 μl/well, and every concentration was repeated in two wells; the final concentrations of the test compounds were 100, 33.3, 11.1, 3.7, 1.23, 0.41, 0.14, 0.046, 0.015, 0.005 and 0 μM, respectively, wherein the final concentration of DMSO was 1%; after centrifugation at 1000 rpm for 1 min, the plate was put in a 25° C. incubator for 15 min; the cathepsin substrate solution was then added at 8 µl/well, and centrifuged at 1000 rpm for 1 min; and finally, the fluorescence signal was read in Enspire, wherein the exciting light was at a wavelength of 400 nm, the emitting light was at a wavelength of 505 nm, and continuous reading was performed at 37° C. for 120 min.
Data analysis: the slope (S) for all the samples was calculated by ΔRFU(RFU2−RFU1) and time ΔT(T2−T1), including negative control (Enzyme Control, EC) and positive control (Inhibitor Control, IC: 10 μM (FF-FMK, F-F-FMK, FF-FMK and Z-FF-FMK), and the calculation formula was as followed: Relative inhibition rate %=(SEC−SS)/(SEC−SIC)*100. The IC50 for each compound was obtained by means of fitting by software GraphPad Prism 5.0.

[1] = 1 μM compound, replicate 1, read-out: Inhibition % (1 μM) replicate 1
[2] = 1 μM compound, replicate 2, read-out: Inhibition % (1 μM) replicate 2
[3] = 10 μM compound, replicate 1, read-out: Inhibition % (10 μM) replicate 1
[4] = 10 μM compound, replicate 2, read-out: Inhibition % (10 μM) replicate 2
[5] = Exp-1, read-out: IC50 (nM) Exp-1
[6] = Exp-2, read-out: IC50 (nM) Exp-2
[7] = average of Exp-1 and Exp-2, read-out: Ave of IC50

T2 sequence (P07711 114-333): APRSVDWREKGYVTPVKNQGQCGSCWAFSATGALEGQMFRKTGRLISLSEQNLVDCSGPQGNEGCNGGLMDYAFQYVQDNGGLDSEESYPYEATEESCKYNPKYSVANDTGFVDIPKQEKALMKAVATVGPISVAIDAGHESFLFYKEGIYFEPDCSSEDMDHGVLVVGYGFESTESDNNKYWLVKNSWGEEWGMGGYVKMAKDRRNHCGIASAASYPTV

Row | SMILES | inhibition at 1 µM (Cathepsin K; [1]) | inhibition at 1 µM (Cathepsin K; [2]) | inhibition at 10 µM (Cathepsin K; [3]) | inhibition at 10 µM (Cathepsin K; [4]) | IC50 (Cathepsin L; [5]) | IC50 (Cathepsin L; [6]) | IC50 (Cathepsin L; [7]) | Inhibition % (1 μM) replicate 1 (Cathepsin K; 1 μM compound, replicate 1) | Inhibition % (1 μM) replicate 2 (Cathepsin K; 1 μM compound, replicate 2) | Inhibition % (10 μM) replicate 1 (Cathepsin K; 10 μM compound, replicate 1) | Inhibition % (10 μM) replicate 2 (Cathepsin K; 10 μM compound, replicate 2)
1 | CCOC(=O)[C@H]1O[C@@H]1C(=O)N[C@@H](CCSC)C(=O)N1CCC(c2ccccc2)CC1 [Compound 13, (2s, 3s)-2-ethoxycarbonyl-3-[2-[(s)-4-methylthio-1-carbonyl-1-(phenylpiperidinyl)butane]formylamino]epoxysuccinic acid] | 99.7% | 98.9% | 108% | 106% | 5880 nM | 6630 nM | 6250 nM |  |  |  | 
2 | CCOC(=O)[C@H]1O[C@@H]1C(=O)N[C@@H](CCSC)C(=O)NC(CC)CC [Compound 39, (2s, 3s)-2-ethoxycarbonyl-3-[2-[(s)-4-methylthio-1-carbonyl-1-(1-ethylpropylamino)butane]formylamino]epoxysuccinic acid] | 81.5% | 85.2% | 97.3% | 99.5% | 9250 nM | 9950 nM | 9600 nM |  |  |  | 
3 | CCOC(=O)[C@H]1O[C@@H]1C(=O)N[C@@H](CCSC)C(=O)NCCCCc1ccccc1 [Compound 40, (2s, 3s)-2-ethoxycarbonyl-3-[2-[(s)-4-methylthio-1-carbonyl-1-(4-phenylbutylamino)butane]formylamino]epoxysuccinic acid] | 85.5% | 89.1% | 91.1% | 94.9% | 4160 nM | 4610 nM | 4390 nM |  |  |  | 
4 | CCOC(=O)[C@H]1O[C@@H]1C(=O)N[C@@H](CCSC)C(=O)NCCCc1ccccc1 [Compound 8, (2s, 3s)-2-ethoxycarbonyl-3-[2-[(s)-4-methylthio-1-carbonyl-1-(3-phenylpropylamino)butane]formylamino]epoxysuccinic acid] | 80.5% | 78.9% | 96.9% | 94.1% | 3610 nM | 4450 nM | 4030 nM |  |  |  | 

Stronger by IC50 (Cathepsin L; [5]), values ahead:

Row | inhibition at 1 µM (Cathepsin K; [1]) | inhibition at 1 µM (Cathepsin K; [2]) | inhibition at 10 µM (Cathepsin K; [3]) | inhibition at 10 µM (Cathepsin K; [4]) | IC50 (Cathepsin L; [5]) | IC50 (Cathepsin L; [6]) | IC50 (Cathepsin L; [7]) | Inhibition % (1 μM) replicate 1 (Cathepsin K; 1 μM compound, replicate 1) | Inhibition % (1 μM) replicate 2 (Cathepsin K; 1 μM compound, replicate 2) | Inhibition % (10 μM) replicate 1 (Cathepsin K; 10 μM compound, replicate 1) | Inhibition % (10 μM) replicate 2 (Cathepsin K; 10 μM compound, replicate 2) | SMILES
5 | 88.6% | 90.8% | 94.4% | 95.7% | 338 nM | 382 nM | 360 nM |  |  |  |  | CCOC(=O)[C@H]1O[C@@H]1C(=O)N[C@@H](CCSC)C(=O)NCCc1cccc(F)c1 [Compound 34, (2s, 3s)-2-ethoxycarbonyl-3-[2-[(s)-4-methylthio-1-carbonyl-1-(3-fluorophenylethylamino)butane]formylamino]epoxysuccinic acid]
6 |  |  |  |  | 171 nM | 180 nM | 175 nM | 85.73% | 87.75% | 90.96% | 98.34% | CCOC(=O)[C@H]1O[C@@H]1C(=O)N[C@@H](CC(C)C)C(=O)NCCC(C)C [zxy-37, E64d, reference compound]
7 | 90.9% | 89.5% | 91.3% | 95.7% | 2270 nM | 2330 nM | 2300 nM |  |  |  |  | CCCCCCNC(=O)[C@H](CCSC)NC(=O)[C@H]1O[C@@H]1C(=O)OCC [Compound 5, (2s, 3s)-2-ethoxycarbonyl-3-[2-[(s)-4-methylthio-1-carbonyl-1-(hexylamino)butane]formylamino]epoxysuccinic acid]
